The record followed here is US20230270893A1, “GALLIUM-LABELED GASTRIN ANALOGUE AND USE IN A METHOD OF IMAGING CCKB-RECEPTOR-POSITIVE TUMORS OR CANCERS” (DEBIOPHARM INTERNATIONAL S.A., priority 2020, published 2023).

Read-outs that look alike come from different tables or passages of the source.

Data set [1] can be described thus: Ex vivo biodistribution study in naïve adult CD1 mice. The following applies: for tissue uptake at 1 h: CD1, mouse, iv, 0.04 ug, total radioactivity; for tissue uptake at 1 h / Retention in stomach: 60 min post-injection. As to the method:
(§1) Ex vivo biodistribution study. Female (FIG. 1A) and male (FIG. 1B) naïve adult CD1 mice (immunocompetent) were injected with [^68Ga]Ga-PPF11N ((0.19±0.04) MBq, 0.04 μg, 1.3 μg/kg). Mice were sacrificed at 5, 15, 30, 60, 120 and 240 min post-injection (N=4 each). A control group of mice of each sex was co-injected with a blocking dose of PPF11N peptide (40 μg, 1.3 mg/kg) and sacrificed at 60 min post-injection. Organs (blood, bone, brain, colon, gonad, kidney, liver, lung, muscle, pancreas, stomach) were weighted and assessed for activity concentration over time. Ex vivo biodistribution in all resected tissues was computed as the percentage of injected dose per gram of tissue (% ID/g).
(§2) Immunocompetent CD1 mice (N=28 males and N=28 females on study, N=3 males and N=3 females spare; males 9 weeks old, females 5 weeks old at delivery) were acclimatized for 7 days, inspected daily and weighed on the day of injection. For each sex, mice were randomly allocated to 7 groups (N=4 mice per group) and each group was injected (bolus i.v. route into a laterial tail vein) with [^68Ga]Ga-PPF11N peptide ((0.19±0.04) MBq in 0.15 mL; (0.039±0.02) μg peptide in non-blocked groups. Following radiolabeling, each product batch was assessed by iTLC and HPLC to ensure the material met the target criteria. For the blocked group, 38±1 μg of peptide was injected. At 5 min, 15 min, 30 min, 1 h, 2 h and 4 h post-injection mice (n=4 per time point for each sex) were sacrificed by cervical dislocation and tissues (blood, bone, brain, colon, gonad, kidney, liver, lung, muscle, pancreas, stomach) were resected, weighed and the radioactivity was counted with a gamma-counter along with calibration standards (dilution series in triplicate). The study design is depicted in the table below.
The activity of each collected tissue was measured in units of counts per min (CPM). Triplicate aliquots of serial dilutions of the radiotracer were also assayed in the gamma counter in order to calculate a conversion factor to units of activity (% ID/g). Measured values were decay corrected and adjusted to account for background radiation

In data set [2] the target is T1, CCK2R (Mus musculus, UniProt P56481).
T1 construct: from tissue; host or cells: organs of naive CD1 mice (stomach and others), in vivo injection with ex vivo gamma counting
T1 sequence (P56481 1-453): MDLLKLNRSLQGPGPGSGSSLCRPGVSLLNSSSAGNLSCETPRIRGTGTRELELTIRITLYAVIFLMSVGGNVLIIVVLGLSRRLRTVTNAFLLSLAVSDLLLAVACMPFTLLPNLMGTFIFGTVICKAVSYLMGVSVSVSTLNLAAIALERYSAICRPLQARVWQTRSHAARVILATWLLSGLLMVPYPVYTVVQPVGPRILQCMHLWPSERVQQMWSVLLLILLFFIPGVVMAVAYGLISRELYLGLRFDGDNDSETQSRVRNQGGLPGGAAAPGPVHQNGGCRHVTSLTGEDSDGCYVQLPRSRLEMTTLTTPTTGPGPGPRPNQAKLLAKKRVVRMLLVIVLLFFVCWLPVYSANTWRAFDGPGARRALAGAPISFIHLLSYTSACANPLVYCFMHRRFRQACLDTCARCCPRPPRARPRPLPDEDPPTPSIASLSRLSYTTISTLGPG
As to the kind of experiment: Peptide blocking experiment (co-injection of blocking dose of PPF11N) in the ex vivo biodistribution study. Further details: species or system CD1 mice. The conditions noted are these: male and female mice, 60 min post-injection, PPF11N 40 μg per mouse. The method, then:
as §1, §2
(§3) The activity of each collected tissue was measured in units of counts per min (CPM). […] Measured values were decay corrected and adjusted to account for background radiation

In data set [3] the test system is T2, CCK2R.
T2 construct: from tissue; host or cells: organs of naive CD1 mice (stomach and others), in vivo injection with ex vivo gamma counting
Described as above. The following applies: CD1, stomach, iv, total radioactivity, 60 min post-injection, co-injected PPF11N 40 μg per mouse (1.3 mg/kg), read-out: Concentration in the stomach with peptide blocking dose. Further details: species or system CD1 mice. As to the method: as §1, §2, §3

Take `CCCC[C@H](NC(=O)[C@H](Cc1c[nH]c2ccccc12)NC(=O)CNC(=O)[C@H](Cc1ccc(O)cc1)NC(=O)[C@H](C)NC(=O)[C@@H](CCC(=O)O)NC(=O)[C@@H](CCC(=O)O)NC(=O)[C@@H](CCC(=O)O)NC(=O)[C@@H](CCC(=O)O)NC(=O)[C@@H](CCC(=O)O)NC(=O)[C@@H](CCC(=O)O)NC(=O)CN1CCN(CC(=O)O)CCN(CC(=O)O)CCN(CC(=O)O)CC1)C(=O)N[C@@H](CC(=O)O)C(=O)N[C@@H](Cc1ccccc1)C(N)=O` [^68Ga-PPF11N, ^68Ga-Y-DGlu-DGlu-DGlu-DGlu-DGlu-DGlu-Ala-Tyr-Gly-Trp-Nle-Asp-Phe-NH2, metal not drawn]: the tissue uptake at 1 h in data set [1] (blood, female mice, i.v., 0.04 μg peptide, read-out: Blood concentration) came to 0.4 ± 0.12 %ID/g; in data set [1] (blood, male mice, i.v., 0.04 μg peptide, read-out: Blood concentration), 0.46 ± 0.35 %ID/g; in data set [1] (kidney, female mice, read-out: Retention in kidneys) it was 2.98 ± 0.53 %ID/g; in data set [1] (kidney, male mice, read-out: Retention in kidneys), 3.38 ± 0.67 %ID/g; in data set [1] (muscle, female mice, read-out: Activity concentration in muscle), 0.16 ± 0.09 %ID/g; in data set [1] (muscle, male mice, read-out: Activity concentration in muscle), 0.1 ± 0.03 %ID/g. Besides, the tissue uptake at 1 h in data set [1] (stomach, female mice, read-out: Retention in stomach) was 1.71 ± 0.56 %ID/g; in data set [1] (stomach, male mice, read-out: Retention in stomach), 1.93 ± 0.18 %ID/g; with CCK2R [3] (female mice), 0.19 ± 0.02 %ID/g; in the data set on CCK2R [3] (male mice), 0.32 ± 0.07 %ID/g. The results for the Retention in stomach in data set [1] (female mice) and in data set [1] (male mice) were 1.71±0.56 % ID/g and 1.93±0.18 % ID/g, respectively. Also, the Clearance from organs result in data set [1] (male and female mice, 5 to 240 min post-injection) was “rapid clearance from all organs except for kidneys and stomach”. Also, the “Effect of peptide blocking dose on kidney exposure” value at CCK2R [2] is given as “unable to reduce kidney exposure”.
